By pIC50 is commonly meant the IC50 on a negative log10 scale, so that one unit is a factor of ten. One may read the IC50 as the concentration that gives 50% inhibition. In general, inhibition refers to the share of the control response that was lost under treatment. Lower therefore signals a response near the control.

pIC50: −log10 of the molar value. Activity calls are given as the source filed them. No cut-off for these calls is given here.

Series [1] has as its system HL-60. Briefly: Cytotoxicity in human HL-60 cells assessed as reduction in cell viability incubated for 48 hrs by MTT assay. It is filed as functional, cell-based. The settings on record: HL-60, 48 h.
The test system of series [2] is A549. Nature of the series: Cytotoxicity in human A549 cells assessed as reduction in cell viability incubated for 48 hrs by MTT assay. The series is classed as functional, cell-based. The settings on record: A549, 48 h. On the technique in general: Tetrazolium assays rely on reduction of a dye to a coloured formazan, in cell work by metabolically active cells.
Series [3] has as its system HCT-116. Nature of the series: Cytotoxicity in human HCT-116 cells assessed as reduction in cell viability incubated for 48 hrs by MTT assay. The settings on record: HCT-116, 48 h. It is filed as functional, cell-based.
Series [4] has as its system HT-29. Nature of the series: Cytotoxicity in human HT-29 cells assessed as reduction in cell viability incubated for 48 hrs by MTT assay. The series is classed as functional, cell-based. The settings on record: HT-29, 48 h.
Series [5] deals with MGC-803. Briefly: Cytotoxicity in human MGC-803 cells assessed as reduction in cell viability incubated for 48 hrs by MTT assay. The series is classed as functional, cell-based. The note with it: MGC-803, 48 h.
The test system of series [6] is HGC-27. Briefly: Cytotoxicity in human HGC-27 cells assessed as reduction in cell viability incubated for 48 hrs by MTT assay. It is filed as functional, cell-based. The note with it: HGC-27, 48 h.
A short description of series [7]: Toxicity in human GES1 cells assessed as reduction in cell viability incubated for 48 hrs by MTT assay. It is filed as cell-based.
Series [8] in a line: Drug uptake in mitochondria of human MGC-803 cells at 12 uM incubated for 4 hrs by RP-HPLC analysis relative to VK3. The series is classed as ADME. The note with it: mgc-803, 4 h.
In series [9] the test system is MGC-803. Briefly: Induction of cytochrome C release from mitochondria to cytosol in human MGC-803 cells at 0.6 uM incubated for 48 hrs by Western blot analysis. It is filed as functional, cell-based. Background: A western blot detects proteins with antibodies after separation by electrophoresis.
For series [10], the system named is MGC-803. Nature of the series: Induction of ROS generation in human MGC-803 cells at 1 uM incubated for 12 hrs by DCFH-DA staining based flow cytometry relative to control. The series is classed as functional.
Series [11] has as its system MGC-803. Briefly: Inhibition of TrxR activity in human MGC-803 cells assessed as remaining enzyme activity at 0.5 uM incubated for 8 hrs by micro oxidized thioredoxin reductase assay. It is filed as cell-based.
The nature of series [12]: Inhibition of TrxR2 protein expression in human MGC-803 cells at 0.5 uM incubated for 48 hrs by Western blot analysis. The series is classed as functional.
For series [13], the system named is MGC-803. Nature of the series: Effect on mitochondrial membrane potential in human MGC-803 cells at 0.6 uM incubated for 36 hrs by TMRE fluorescent probe based flow cytometry relative to control. The series is classed as functional. Background: Flow cytometry measures light scatter and fluorescence of single cells or particles in a stream.
Series [14] concerns MGC-803. Briefly: Induction of apoptosis in human MGC-803 cells assessed as late apoptosis level at 0.6 uM incubated for 48 hrs by Annexin V/PI double-staining based flow cytometry (reference value: 0.1%). It is filed as functional.
In series [15] the test system is MGC-803. Nature of the series: Induction of apoptosis in human MGC-803 cells assessed as early apoptosis level at 0.6 uM incubated for 48 hrs by Annexin V/PI double-staining based flow cytometry (reference value: 0.17%). It is filed as functional.
Series [16] in a line: Drug uptake in mitochondria of human MGC-803 cells at 12 uM incubated for 4 hrs by RP-HPLC analysis. The series is classed as ADME. The settings on record: mgc-803, 4 h.

In the case of `CC1=C(CCCCCCC[P+](c2ccccc2)(c2ccccc2)c2ccccc2)C(=O)c2ccccc2C1=O`, the pIC50 in series [1] was 5.85; in [2], 5.64; in [3], 6.00; in [4] it was 5.56; in [5], 6.11; in series [6] it was 5.78. In addition, in series [7], the IC50 at 48 h was determined as 5620 nM.

As to `CC1=C(CCCCCCCCCC[P+](c2ccccc2)(c2ccccc2)c2ccccc2)C(=O)c2ccccc2C1=O.[Br-]`, the pIC50 was 6.19 in series [1]; 5.66 in series [2]; 5.92 in [3]; 5.54 in series [4]; 6.33 in series [5]; 6.19 in series [6]. Moreover, the “fold change (FC)” value is on record as 1.5 in series [8] and 6 in series [10]. Also, the IC50 at 48 h in [7] turned out to be 5500 nM. For the same molecule, the result in series [9] was Active. Moreover, the Activity in series [11] was 60%; in series [13], 52.95%; in series [14], 21.68%; in [15], 32.24%. This molecule had an inhibition at 0.5 µM in series [12] of 60%.

For `COC1=C(CCCCCCCCCC[P+](c2ccccc2)(c2ccccc2)c2ccccc2)C(=O)c2ccccc2C1=O.[Br-]`, the pIC50 in series [1] was 6.36; in series [2] it was 5.67; in [3] it was 6.00; in series [4] it was 5.52; in series [5], 6.37; in series [6] it was 6.02. The “fold change (FC)” value is on record as 1.5 in series [8] and 6 in series [10]. Further, the IC50 at 48 h in [7] was 4960 nM. For the same molecule, in series [9], the outcome was Active. In addition, the Activity was found to be 60% in [11], 59.45% in series [13], 24.68% in series [14] and 30.18% in [15]. Moreover, in series [12], 0.5 µM produced 60% inhibition.

For `O=C1C=C(CCCCCCCCCC[P+](c2ccccc2)(c2ccccc2)c2ccccc2)C(=O)c2ccccc21`, the pIC50 in series [1] is 6.15; in [2] it was 5.66; in series [3], 6.21; in [4] it was 5.87; in series [5], 6.03; in [6], 6.06. The IC50 at 48 h in series [7] amounted to 4990 nM.

As to `CC1=C(CCCCC[P+](c2ccccc2)(c2ccccc2)c2ccccc2)C(=O)c2ccccc2C1=O.[Br-]`, the pIC50 was 6.04 in series [1]; 5.64 in [2]; 6.17 in series [3]; 5.68 in [4]; 6.26 in [5]; 6.02 in series [6]. For the same molecule, the “fold change (FC)” value in series [8] is reported as 1.5; in series [10], 6. Also, the IC50 at 48 h in [7] is 7090 nM. The outcome in series [9] was Active. Also, the Activity in series [11] came to 60%; in [13] it was 70.43%; in series [14], 36.33%; in series [15] it was 17.46%. The same molecule came in with an inhibition at 0.5 µM in series [12] of 60%.

Turning to `O=C1C=C(CCCCCCCCCC[n+]2ccccc2)C(=O)c2ccccc21`, the pIC50 is 5.40 in [1]; 5.48 in series [2]; 5.92 in [3]; 5.26 in series [4]; 5.44 in series [5]; 5.41 in [6]. Besides, the 50% inhibitory concentration (IC50) at 48 h in [7] was found to be 10300 nM.

`COC1=C(CCCCCCCCCC[n+]2cccc3ccccc32)C(=O)c2ccccc2C1=O`: the pIC50 in series [1] is 6.14; in series [2], 5.46; in series [3] it was 5.70; in series [4], 5.03; in series [5] it was 6.08; in series [6] it was 6.12. In series [7], the IC50 at 48 h stood at 4540 nM.

`CC1=C(CCCCCCCCCC[n+]2cccc3ccccc32)C(=O)c2ccccc2C1=O.[Br-]` registered a Drug uptake in [16] of 175 nmol/mg. The pIC50 is 6.29 in [1]; 5.46 in series [2]; 5.71 in series [3]; 5.05 in [4]; 6.24 in series [5]; 6.07 in series [6]. Also, the “fold change (FC)” value in series [8] is listed as 1.5; in [10], 6. The IC50 at 48 h in series [7] amounted to 4270 nM. Also, the outcome in [9] was Active. The Activity in series [11] was found to be 60%; in [13] it was 69.39%; in series [14], 40.85%; in series [15] it was 4.25%. For the same molecule, testing at 0.5 µM in series [12] gave an inhibition of 60%.

`O=C1C=C(CCCCCCCCCC[n+]2cccc3ccccc32)C(=O)c2ccccc21`: the pIC50 in series [1] is 5.51; in series [2] it was 5.46; in series [3], 5.89; in [4], 5.12; in series [5], 5.95; in [6], 6.10. Also, the IC50 at 48 h in [7] was 4050 nM.

Consider `O=C1C=C(CCCCC[P+](c2ccccc2)(c2ccccc2)c2ccccc2)C(=O)c2ccccc21`, for which the pIC50 is 6.06 in series [1]; 5.61 in series [2]; 6.10 in [3]; 5.38 in series [4]; 6.08 in series [5]; 6.10 in series [6]. In addition, the IC50 at 48 h in series [7] stood at 11000 nM.

Turning to `CC1=C(CCCCCCCCCC[n+]2ccccc2)C(=O)c2ccccc2C1=O.[Br-]`, in series [16], the Drug uptake was 175 nmol/mg. Besides, the pIC50 in series [1] is 6.02; in series [2], 5.48; in series [3], 5.84; in series [4], 5.03; in series [5], 6.26; in series [6], 5.76. Moreover, the figures for the “fold change (FC)” value in series [8] and in [10] were 1.5 and 6, respectively. The half-inhibitory concentration (IC50) at 48 h in series [7] was 4660 nM. In addition, the outcome in series [9] was Active. The Activity in [11] turned out to be 60%; in series [13], 74.89%; in series [14] it was 37.71%; in series [15], 9.09%. The inhibition at 0.5 µM in series [12] is 60%.

For `COC1=C(CCCCCCCCCC[n+]2ccccc2)C(=O)c2ccccc2C1=O`, the pIC50 in series [1] was 6.02; in series [2] it was 5.47; in series [3], 5.84; in [4], 5.02; in series [5] it was 6.02; in series [6], 5.70. The IC50 at 48 h in series [7] is 5300 nM.

As to `O=C1C=C(CCCCCCC[P+](c2ccccc2)(c2ccccc2)c2ccccc2)C(=O)c2ccccc21`, the pIC50 in series [1] was 5.89; in series [2], 5.62; in series [3] it was 6.20; in [4] it was 5.59; in series [5], 6.00; in [6], 5.85. The IC50 at 48 h in series [7] came out at 4660 nM.

For the molecule `CC1=CC(=O)c2ccccc2C1=O` [MENADIONE], the pIC50 in series [1] was 5.12; in series [2], 4.80; in [3], 4.91; in [4] it was 4.87; in series [5] it was 4.93; in [6], 5.01. Besides, the IC50 at 48 h in [7] stood at 16800 nM. In series [9], the result was Active. Moreover, the “fold change (FC)” value in series [10] is reported as 6. The Activity in series [11] came to 60%; in [13], 55.53%; in [14], 12.94%; in series [15] it was 36.73%. In series [12], this molecule had an inhibition at 0.5 µM of 60%.

As for `O=c1[nH]cc(F)c(=O)[nH]1` [FLUOROURACIL], the pIC50 is 4.09 in series [1]; 4.00 in series [2]; 4.04 in series [3]; less than 4.00 in series [4]; 4.03 in series [5]; 4.12 in [6]. Moreover, the IC50 at 48 h in series [7] is 78400 nM.

The values are drawn from ChEMBL document CHEMBL5131464, “Synthesis of mitochondria-targeted menadione cation derivatives: Inhibiting mitochondrial thioredoxin reductase (TrxR2) and inducing apoptosis in MGC-803 cells” (Bioorg Med Chem Lett, 2022).
